Experiments:
Assay in all cases: Phosphomimetic ProP-PD selection with NGS
[1] = target: T1, Scribble PDZ1 (Homo sapiens, UniProt Q14160); type: binding; conditions: for Mean fraction #NGS counts wt peptide / total counts selection / Mean fraction #NGS counts mimetic peptide / total count selection: bait Scribble PDZ1, mean of selections 1-3
T1 construct: human Scribble PDZ1 aa 719–829 in; made in house; host or cells: E. coli BL21 Gold (DE3)
Protocol: (§1) Phage selections were carried out for four rounds following a protocol by Huang and Sidhu (Huang & Sidhu, 2011) with minor modifications. Non‐specific binding phage was removed by pre‐selections against immobilized GST throughout the selection. The selections against the (pre‐)phosphorylated wild‐type library were performed in 50 mM HEPES (pH 7.4) and 150 mM NaCl (HBS) following the same procedure after pre‐phosphorylation of the library.
(§2) • Immobilize proteins (15 μg in 100 μl PBS) in a 96‐well MaxiSorp microtiter plate (NUNC) overnight at 4°C. • Start a 2YT culture of E. coli Omnimax supplemented with 100 μg/ml tetracycline to retain the F pilus epitope. • Block the wells with 200 μl 0.5% BSA in PBS for 2 h at 4°C. • Precipitate naïve phage library (10^11 cfu per selection) or amplified phage pool from the previous round of selection by adding one‐fifth the volume of PEG/NaCl. • Incubate on ice for 10 min, and pellet precipitated phage by centrifugation at 5,300 g for 15 min. Resuspend the phage pellet in 100 μl PBS per selection. • Add 100 μl of phage solution to the GST‐coated pre‐selection wells and incubate for 1 h. • Transfer the phage solution to the immobilized target proteins and allow it to bind for 2 h at 8°C. • Wash the plate four times with 200 μl cold wash buffer (PBS, 0.05% Tween‐20). • Elute bound phage by incubation with 100 μl log phase (0.6–0.8 OD600) E. coli Omnimax for 30 min at 37°C with shaking (200 RPM). • Add 10^12 cfu/ml M13K07 helper phage for hyperinfection of the bacteria and incubate as above for 45 min. • Transfer the bacterial culture to 10 ml 2YT supplemented with 50 μg/ml carbenicillin, 25 μg/ml kanamycin, and 300 μM IPTG and incubate overnight at 37°C while shaking. • Perform phage pool ELISA to monitor the progress of the selection as described previously (Huang & Sidhu, 2011).
(§3) The naïve library and the enriched phage pools of the third day of selection were amplified and barcoded by PCR and analyzed by NGS as described elsewhere (McLaughlin & Sidhu, 2013; Ivarsson et al, 2014). The reads were demultiplexed using the barcode sequences and filtered by discarding sequences with a Phred quality score under 30. Sequences were mapped to the original library using Bowtie (Langmead et al, 2009) with two mismatches between reads and library sequence. Nucleotide mutations leading to amino acid substitutions were subsequently removed. Cutoff values of NGS counts were assigned for each pool. PWMs were generated based on the remaining peptides (aligned on the C‐termini) using WebLogo (Crooks et al, 2004).
(§4) However, there was no significant correlation of the actual read counts (selection “strength”) and the initial representation in the library, reflecting the strong selection during phage display (wt+mimetic: P‐value: 0.49, ρ = −0.08, mimetic only: P‐value: 0.069, ρ = −0.2, wt only: P‐value: 0.12, ρ = 0.17). Consequently, the amount of reads for each binder after phage display is not a function of the amount of input reads in the naïve library and no modeling based on the input library frequencies to score the interactions is necessary. To allow for comparison between replicate selections, we used the fraction of NGS reads within a certain set, instead of the absolute number of NGS reads, as the absolute numbers differ between different NGS batches.

[2] = test system: Scribble PDZ3; type: binding, human; conditions: bait Scribble PDZ3
Protocol: as §1, §2, §3, §4

[3] = target: T2, DLG1 PDZ2 (Homo sapiens, UniProt Q12959); type: binding; conditions: mean of selections 1-3, bait DLG1 PDZ2
T2 construct: human DLG1 PDZ2 aa 311–407 in a modified pRSET vector 40; made in house; host or cells: E. coli BL21 Gold (DE3)
T2 sequence (Q12959 311-407): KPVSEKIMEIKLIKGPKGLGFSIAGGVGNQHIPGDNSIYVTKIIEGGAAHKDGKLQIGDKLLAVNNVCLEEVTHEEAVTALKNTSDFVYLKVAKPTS
Protocol: as §1, §2, §3, §4

[4] = mean of selections 1-3, phosphomimetic peptide
[5] = mean of selections 1-3, wild type peptide

T1 sequence (Q14160 719-829): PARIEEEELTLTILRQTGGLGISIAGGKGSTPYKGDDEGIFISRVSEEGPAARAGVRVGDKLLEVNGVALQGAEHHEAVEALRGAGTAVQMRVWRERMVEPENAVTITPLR

MKRLTSTRL
Mean fraction #NGS counts wt peptide / total counts selection [1]: 2.8701e-5
Mean fraction #NGS counts wt peptide / total counts selection ([2]; mean over selections 1-3): 3.6122e-5

MRLQEETEV
Mean fraction #NGS counts mimetic peptide / total count selection [3]: 0.0001421

MRLQEETSV
Mean fraction #NGS counts mimetic peptide / total count selection [3]: 0.0002419

NSTNMESEL
Mean fraction #NGS counts mimetic peptide / total count selection [2, 4]: 0.001938

NSTNMESSL
Mean fraction #NGS counts wt peptide / total counts selection [2, 5]: 0

PEHVLQTQI
Mean fraction #NGS counts mimetic peptide / total count selection [1]: 0.0001068

PIHELETEL
Mean fraction #NGS counts mimetic peptide / total count selection [2, 4]: 0.0005099

PIHELETSL
Mean fraction #NGS counts mimetic peptide / total count selection [1]: 0
Mean fraction #NGS counts mimetic peptide / total count selection ([2]; mean over selections 1-3): 0

PIHSLEESL
Mean fraction #NGS counts mimetic peptide / total count selection [1]: 0
Mean fraction #NGS counts mimetic peptide / total count selection ([2]; mean over selections 1-3): 7.932e-6

PIHSLETEL
Mean fraction #NGS counts mimetic peptide / total count selection [1]: 0.002226
Mean fraction #NGS counts mimetic peptide / total count selection ([2]; mean over selections 1-3): 0.002436

PIHSLETSL
Mean fraction #NGS counts wt peptide / total counts selection [1]: 0.0009794
Mean fraction #NGS counts wt peptide / total counts selection [2, 5]: 0.001163
Mean fraction #NGS counts wt peptide / total counts selection ([2]; mean over selections 1-3): 0.001163

PLHELETEL
Mean fraction #NGS counts mimetic peptide / total count selection [2, 4]: 0.00248

PLHELETSL
Mean fraction #NGS counts mimetic peptide / total count selection [1]: 0
Mean fraction #NGS counts mimetic peptide / total count selection ([2]; mean over selections 1-3): 0

PLHSLEESL
Mean fraction #NGS counts mimetic peptide / total count selection [1]: 0
Mean fraction #NGS counts mimetic peptide / total count selection ([2]; mean over selections 1-3): 0

PLHSLETEL
Mean fraction #NGS counts mimetic peptide / total count selection [1]: 0.01704
Mean fraction #NGS counts mimetic peptide / total count selection ([2]; mean over selections 1-3): 0.01661

PLHSLETSL
Mean fraction #NGS counts wt peptide / total counts selection [1]: 0.0001571
Mean fraction #NGS counts wt peptide / total counts selection [2, 5]: 0.0002079
Mean fraction #NGS counts wt peptide / total counts selection ([2]; mean over selections 1-3): 0.0002261

PTHVLQTQI
Mean fraction #NGS counts wt peptide / total counts selection [1]: 0

QKFRAETAL
Mean fraction #NGS counts mimetic peptide / total count selection [1]: 0.002401
Mean fraction #NGS counts mimetic peptide / total count selection ([2]; mean over selections 1-3): 0.001978

QKFRASTAL
Mean fraction #NGS counts wt peptide / total counts selection [1]: 0
Mean fraction #NGS counts wt peptide / total counts selection ([2]; mean over selections 1-3): 4.038e-6

RATEWYSPY
Mean fraction #NGS counts mimetic peptide / total count selection [3]: 0

RATSWYSPY
Mean fraction #NGS counts wt peptide / total counts selection [3]: 0.002312

RPHTNETEL
Mean fraction #NGS counts mimetic peptide / total count selection [1]: 0.008773
Mean fraction #NGS counts mimetic peptide / total count selection ([2]; mean over selections 1-3): 0.00587

RPHTNETSL
Mean fraction #NGS counts wt peptide / total counts selection [1]: 0.0005328
Mean fraction #NGS counts wt peptide / total counts selection ([2]; mean over selections 1-3): 0.0004079

RPLRREEEI
Mean fraction #NGS counts mimetic peptide / total count selection ([2]; mean over selections 1-3): 0

RPLRRESEI
Mean fraction #NGS counts mimetic peptide / total count selection [3]: 0
Mean fraction #NGS counts wt peptide / total counts selection [3]: 3.748e-5
Mean fraction #NGS counts wt peptide / total counts selection ([2]; mean over selections 1-3): 8.219e-5

RSEMKPGFV
Mean fraction #NGS counts mimetic peptide / total count selection ([3]; phosphomimetic peptide): 0

RSSMKPGFV
Mean fraction #NGS counts wt peptide / total counts selection ([3]; wild type peptide): 0.02056

SATSVHTSV
Mean fraction #NGS counts wt peptide / total counts selection ([3]; wild type peptide): 0.0005933

SIDLWETAL
Mean fraction #NGS counts wt peptide / total counts selection ([2]; mean over selections 1-3): 0.004105

SPTVHVTEL
Mean fraction #NGS counts wt peptide / total counts selection [1]: 0.0001068
Mean fraction #NGS counts wt peptide / total counts selection ([2]; mean over selections 1-3): 5.538e-5

SQSRMETNM
Mean fraction #NGS counts mimetic peptide / total count selection ([2]; mean over selections 1-3): 0.0002587

SRKRTESFL
Mean fraction #NGS counts mimetic peptide / total count selection ([2]; mean over selections 1-3): 0.0004518

SRKRTSSFL
Mean fraction #NGS counts wt peptide / total counts selection ([2]; mean over selections 1-3): 0

TMFLRETEL‐coo‐
occurrence in NGS of the selection relative to wild‐type counterpart ([1]; phage-displayed peptide, phosphomimetic ProP‐PD selection against Scribble PDZ1): three times more

VKRLLESVF
Mean fraction #NGS counts mimetic peptide / total count selection [1]: 0.005379

VKRLLSSVF
Mean fraction #NGS counts wt peptide / total counts selection [1]: 0

VREKLPSNL
Mean fraction #NGS counts mimetic peptide / total count selection [1]: 0

VRKLPETEL
Mean fraction #NGS counts mimetic peptide / total count selection [1]: 4.38e-5
Mean fraction #NGS counts mimetic peptide / total count selection [2, 4]: 0.01059

VRKLPETTL
Mean fraction #NGS counts mimetic peptide / total count selection ([2]; mean over selections 1-3): 0.002417

VRSKLPSNL
Mean fraction #NGS counts wt peptide / total counts selection [1]: 4.38e-5

VTEERETNI
Mean fraction #NGS counts mimetic peptide / total count selection ([2]; mean over selections 1-3): 4.038e-6

VTSERETNI
Mean fraction #NGS counts wt peptide / total counts selection ([2]; mean over selections 1-3): 0.001424

From article PMC6100724, “Proteome‐wide analysis of phospho‐regulated PDZ domain interactions” (Molecular Systems Biology, 2018)
